Assay results from paper PMC9576799, “Discovery of small molecule inhibitors that effectively disrupt IQGAP1-Cdc42 interaction in breast cancer cells” (Scientific Reports, 2022).

How the values were obtained:
[1] = system: MCF7-siIQ8 cells; experiment: CellTiter-Glo cell viability assay, IQGAP1 knockdown MCF7; type: cell-based; details: Homo sapiens
Experimental: Selected hit compounds were tested in CellTiterGlo cell viability assays to determine their cytotoxic effect on IQGAP1 knockout and control MCF7 cells. Prior to the assay, we assessed cell proliferation to keep both cell lines at similar exponential growth rates within 80 h after plating. For this purpose, the cells were plated onto 384-well clear bottom black plates (Perkin Elmer, Ultra) at various cell densities (between 625 and 10,000 cells/50µL/well), spun down for 15 s, and placed into Incucyte SX5 (Essen BioScience) for automated bright-field channel reading every 4 h. […] For the cytotoxicity assays, cells were harvested with 0.05% trypsin, spun down at 125xg for 5 min, re-suspended in fresh DMEM supplemented with 5% (v/v) FBS, and seeded into 1536-well white solid bottom tissue culture-treated plates (Greiner One, #789173-F) at 600 cells/5µL/well for knockout cells and 300 cells/5µL/well for control cells using a Multidrop Combi dispenser (Thermo Fisher Scientific Inc.). […]
Plates and reagents were equilibrated to room temperature and then 5 µL/well of CellTiter Glo (Promega, #G7570) reagent was dispensed with a Multidrop Combi dispenser to the assay plates. After incubation for 10 min at ambient temperature, the luminescence signal was read with a ViewLux instrument (Perkin Elmer) with one second exposure. […]

[2] = system: active (GTP-bound) Cdc42 in MDA-MB-231 cells; experiment: Assay of active Cdc42 (GST-WASP-GBD pulldown); type: cell-based, human; details: 50 µM for 2 h, 100 ng/mL EGF 10 min
Experimental: The GST-WASP-GBD (GTPase-binding-domain) has been described previously. Briefly, GST-WASP-GBD was generated by polymerase chain reaction, digested, and ligated into a pGEX-KG vector[52]. Following expression of the GST fusion protein in E. coli, purification was performed by glutathione-Sepharose affinity chromatography. MDA-MB-231 cells were grown in DMEM with 10% FBS to 60% confluence. After 2 h, 100 ng/mL EGF or vehicle was added for 10 min. After washing with 1xPBS, cells were lysed in lysis buffer (20 mM Hepes, pH 7.4, 150 mM NaCl, 1% NP-40, 20 mM NaF, and 20uM GTP, containing halt protease & phosphatase inhibitor cocktail (Thermo Scientific #1,861,281). Lysates were precleared with glutathione-Sepharose for 1 h at 4 °C and equal amounts of protein was incubated with either GST (control) or GST-WASP-GBD for 2 h at 4 °C. Complexes were collected with glutathione-Sepharose and washed 5× with lysis buffer. Bound proteins were resolved by SDS-PAGE and transferred to a polyvinylidene difluoride membrane. The membrane was cut immediately below the 37 kDa molecular weight marker. The top portion of the membrane was discarded and the bottom portion was probed with anti-Cdc42 antibody (BD Transduction Laboratories #610929). Aliquots of whole cell lysate were processed in parallel. […] The intensities of the Cdc42 and tubulin bands were quantified using Image Studio (LI-COR Biosciences).

Row | SMILES | Emax ([1]; MCF7, 72 h, read-out: cytotoxicity efficacy) [%] | IC50 ([1]; IQGAP1 knockdown MCF7-siIQ8 cells, 72 h, read-out: cytotoxicity EC50) [nM] | effect on EGF-induced active (GTP-) Cdc42 [2]
1 | Cc1cccc(NC(=O)c2c(NC(=O)C(F)(F)F)sc3c2CCCCC3)c1 [NCGC00098561] | ~100 | 2240 | 
2 | CCN1CCN(c2ncc3c(n2)CCN(Cc2cc(Br)cs2)C3)CC1 [NCGC00131308] |  |  | abrogated the increase in GTP-Cdc42 induced by EGF
3 | CCc1ccccc1Nc1ncnc2c1cnn2-c1ccc(Cl)cc1 [NCGC00138812] |  |  | did not appreciably reduce activation of Cdc42 by EGF
